# Activity calls are given as the source filed them. The calls are words filed in the database; no cut-off is given here.
# Tested on: not listed separately
# Experiment: Selectivity index, ratio of IC50 for cytotoxicity against human HepG2 cells to IC50 for erythrocytic stage of chloroquine-sensitive Plasmodium falciparum 3D7
# Assay type: toxicity, cell-based
# Details: read-out: Ratio IC50
row,SMILES,selectivity ratio
1,COc1ccc2c3ccnc(C)c3n(CCNC(=O)/C=C/c3cccc(OC(F)(F)F)c3)c2c1,16.2
2,COc1ccc2c3ccnc(C)c3n(CCNC(=O)OC/C=C/c3ccc(C)cc3)c2c1,8.78
3,COc1ccc2c3ccnc(C)c3n(CCNC(=O)/C=C/c3ccc([N+](=O)[O-])cc3)c2c1,31.8
4,COc1ccc2c3ccnc(C)c3n(CCNC(=O)OC/C=C/c3cccc(Cl)c3)c2c1,8.78
5,CCCOc1ccc(/C=C/CNC(=O)NCCn2c3cc(OC)ccc3c3ccnc(C)c32)cc1,10.3
6,COc1ccc2c3ccnc(C)c3n(CCNC(=O)/C=C/c3ccc(Br)cc3)c2c1,8.76
7,COc1ccc2c3ccnc(C)c3n(CCNC(=O)/C=C/c3ccc(C)cc3)c2c1,6
8,COc1ccc2c3ccnc(C)c3n(CCNC(=O)OC/C=C/c3cc(C(F)(F)F)cc(C(F)(F)F)c3)c2c1,21.8
9,COc1ccc2c3ccnc(C)c3n(CCNC(=O)OC/C=C/c3ccc(C(F)(F)F)cc3)c2c1,8.49
10,COc1ccc2c3ccnc(C)c3n(CCNC(=O)/C=C/c3ccccc3Cl)c2c1,21.8
11,CCCOc1ccc(/C=C/COC(=O)NCCn2c3cc(OC)ccc3c3ccnc(C)c32)cc1,19.9
12,COc1ccc2c3ccnc(C)c3n(CCNC(=O)OC/C=C/c3ccccc3)c2c1,18.5
13,COc1ccc2c(c1)[nH]c1c(C)nccc12 [HARMINE],30
14,COc1ccc2c3ccnc(C)c3n(CCNC(=O)/C=C/c3cccc(Cl)c3)c2c1,25.6
15,COc1ccc2c3ccnc(C)c3n(CCNC(=O)NC/C=C/c3cccc(C(F)(F)F)c3)c2c1,44.7
16,COc1ccc2c3ccnc(C)c3n(CCNC(=O)OC/C=C/c3cccc(OC(F)(F)F)c3)c2c1,12.8
17,COc1ccc2c3ccnc(C)c3n(CCNC(=O)OC/C=C/c3ccc(Br)cc3)c2c1,21.6

# Tested on: Plasmodium falciparum
# Experiment: Resistance index, ratio of IC50 for antiplasmodial activity against chloroquine-resistant Plasmodium falciparum Dd2 to IC50 for antiplasmodial activity against chloroquine-sensitive Plasmodium falciparum 3D7
# Assay type: functional
# Details: not given
row,SMILES,Ratio IC50
1,COc1ccc2c3ccnc(C)c3n(CCNC(=O)/C=C/c3cccc(OC(F)(F)F)c3)c2c1,6.03
2,COc1ccc2c3ccnc(C)c3n(CCNC(=O)OC/C=C/c3ccc(C)cc3)c2c1,2.48
3,COc1ccc2c3ccnc(C)c3n(CCNC(=O)/C=C/c3ccc([N+](=O)[O-])cc3)c2c1,1.51
4,COc1ccc2c3ccnc(C)c3n(CCNC(=O)OC/C=C/c3ccc([N+](=O)[O-])cc3)c2c1,0.92
5,COc1ccc2c3ccnc(C)c3n(CCNC(=O)OC/C=C/c3cccc(Cl)c3)c2c1,1.23
6,CCCOc1ccc(/C=C/CNC(=O)NCCn2c3cc(OC)ccc3c3ccnc(C)c32)cc1,2.67
7,COc1ccc2c3ccnc(C)c3n(CCNC(=O)/C=C/c3ccc(C)cc3)c2c1,0.65
8,COc1ccc2c3ccnc(C)c3n(CCNC(=O)OC/C=C/c3cc(C(F)(F)F)cc(C(F)(F)F)c3)c2c1,4.05
9,COc1ccc2c3ccnc(C)c3n(CCNC(=O)OC/C=C/c3cccc(C(F)(F)F)c3)c2c1,3.84
10,COc1ccc2c3ccnc(C)c3n(CCNC(=O)OC/C=C/c3ccc(C(F)(F)F)cc3)c2c1,0.89
11,COc1ccc2c3ccnc(C)c3n(CCNC(=O)OC/C=C/c3ccccc3Cl)c2c1,1.07
12,COc1ccc2c3ccnc(C)c3n(CCNC(=O)/C=C/c3ccccc3Cl)c2c1,1.56
13,CCCOc1ccc(/C=C/COC(=O)NCCn2c3cc(OC)ccc3c3ccnc(C)c32)cc1,2.13
14,COc1ccc2c3ccnc(C)c3n(CCNC(=O)OC/C=C/c3ccccc3)c2c1,2.49
15,COc1ccc2c(c1)[nH]c1c(C)nccc12 [HARMINE],> 3.36
16,COc1ccc2c3ccnc(C)c3n(CCNC(=O)/C=C/c3cccc(Cl)c3)c2c1,2.06
17,COc1ccc2c3ccnc(C)c3n(CCNC(=O)NC/C=C/c3cccc(C(F)(F)F)c3)c2c1,4.86
18,COc1ccc2c3ccnc(C)c3n(CCNC(=O)OC/C=C/c3cccc(OC(F)(F)F)c3)c2c1,2.62
19,COc1ccc2c3ccnc(C)c3n(CCNC(=O)OC/C=C/c3ccc(Br)cc3)c2c1,2.6

# Tested on: Plasmodium berghei
# Experiment: Antiplasmodial activity against luciferase-expressing Plasmodium berghei infected in human Huh-7 cells assessed as reduction in parasite load preincubated with cells for 1 hr followed by parasite infection and measured after 46 hrs by bioluminescence assay
# Assay type: functional, organism-based
# Details: not given
row,SMILES,IC50
1,COc1ccc2c3ccnc(C)c3n(CCNC(=O)/C=C/c3cccc(OC(F)(F)F)c3)c2c1,2.29 µM
2,COc1ccc2c3ccnc(C)c3n(CCNC(=O)OC/C=C/c3ccccc3)c2c1,3.38 µM
3,COc1ccc2c3ccnc(C)c3n(CCNC(=O)NC/C=C/c3cccc(C(F)(F)F)c3)c2c1,2.89 µM

# Tested on: Plasmodium berghei
# Experiment: Antiplasmodial activity against luciferase-expressing Plasmodium berghei infected in human Huh-7 cells assessed as reduction in parasite load at 1 to 10 uM preincubated with cells for 1 hr followed by parasite infection and measured after 46 hrs by bioluminescence assay
# Assay type: functional, organism-based
# Details: dose 1-10 µM, time 47.0 hrs
row,SMILES,Activity
1,COc1ccc2c3ccnc(C)c3n(CCNC(=O)/C=C/c3cccc(OC(F)(F)F)c3)c2c1,Active
2,COc1ccc2c3ccnc(C)c3n(CCNC(=O)OC/C=C/c3ccc(C)cc3)c2c1,Active
3,COc1ccc2c3ccnc(C)c3n(CCNC(=O)/C=C/c3ccc([N+](=O)[O-])cc3)c2c1,Active
4,COc1ccc2c3ccnc(C)c3n(CCNC(=O)OC/C=C/c3ccc([N+](=O)[O-])cc3)c2c1,Active
5,COc1ccc2c3ccnc(C)c3n(CCNC(=O)OC/C=C/c3cccc(Cl)c3)c2c1,Active
6,CCCOc1ccc(/C=C/CNC(=O)NCCn2c3cc(OC)ccc3c3ccnc(C)c32)cc1,Active
7,COc1ccc2c3ccnc(C)c3n(CCNC(=O)/C=C/c3ccc(Br)cc3)c2c1,Active
8,COc1ccc2c3ccnc(C)c3n(CCNC(=O)/C=C/c3ccc(C)cc3)c2c1,Active
9,COc1ccc2c3ccnc(C)c3n(CCNC(=O)OC/C=C/c3cccc(C(F)(F)F)c3)c2c1,Active
10,COc1ccc2c3ccnc(C)c3n(CCNC(=O)OC/C=C/c3ccc(C(F)(F)F)cc3)c2c1,Active
11,COc1ccc2c3ccnc(C)c3n(CCNC(=O)/C=C/c3ccccc3Cl)c2c1,Active
12,CCCOc1ccc(/C=C/COC(=O)NCCn2c3cc(OC)ccc3c3ccnc(C)c32)cc1,Active
13,COc1ccc2c3ccnc(C)c3n(CCNC(=O)OC/C=C/c3ccccc3)c2c1,Active
14,COc1ccc2c3ccnc(C)c3n(CCNC(=O)/C=C/c3cccc(Cl)c3)c2c1,Active
15,COc1cc(NC(C)CCCN)c2ncccc2c1 (configuration not stated),Active
16,COc1ccc2c3ccnc(C)c3n(CCNC(=O)NC/C=C/c3cccc(C(F)(F)F)c3)c2c1,Active
17,COc1ccc2c3ccnc(C)c3n(CCNC(=O)OC/C=C/c3cccc(OC(F)(F)F)c3)c2c1,Active
18,COc1ccc2c3ccnc(C)c3n(CCNC(=O)OC/C=C/c3ccc(Br)cc3)c2c1,Active

# Tested on: Plasmodium falciparum
# Experiment: Antimalarial activity against erythrocytic stage of chloroquine-sensitive Plasmodium falciparum 3D7 measured after 3 days by HRP2-ELISA analysis
# Assay type: functional, organism-based
# Details: 3D7, 72 h
row,SMILES,IC50
1,COc1ccc2c3ccnc(C)c3n(CCNC(=O)/C=C/c3cccc(OC(F)(F)F)c3)c2c1,0.35 µM
2,COc1ccc2c3ccnc(C)c3n(CCNC(=O)OC/C=C/c3ccc(C)cc3)c2c1,1.13 µM
3,COc1ccc2c3ccnc(C)c3n(CCNC(=O)/C=C/c3ccc([N+](=O)[O-])cc3)c2c1,1.36 µM
4,COc1ccc2c3ccnc(C)c3n(CCNC(=O)OC/C=C/c3ccc([N+](=O)[O-])cc3)c2c1,0.36 µM
5,COc1ccc2c3ccnc(C)c3n(CCNC(=O)OC/C=C/c3cccc(Cl)c3)c2c1,0.97 µM
6,CCCOc1ccc(/C=C/CNC(=O)NCCn2c3cc(OC)ccc3c3ccnc(C)c32)cc1,0.42 µM
7,COc1ccc2c3ccnc(C)c3n(CCNC(=O)/C=C/c3ccc(Br)cc3)c2c1,0.41 µM
8,COc1ccc2c3ccnc(C)c3n(CCNC(=O)/C=C/c3ccc(C)cc3)c2c1,0.98 µM
9,COc1ccc2c3ccnc(C)c3n(CCNC(=O)OC/C=C/c3cc(C(F)(F)F)cc(C(F)(F)F)c3)c2c1,0.65 µM
10,COc1ccc2c3ccnc(C)c3n(CCNC(=O)OC/C=C/c3cccc(C(F)(F)F)c3)c2c1,0.5 µM
11,COc1ccc2c3ccnc(C)c3n(CCNC(=O)OC/C=C/c3ccc(C(F)(F)F)cc3)c2c1,0.79 µM
12,COc1ccc2c3ccnc(C)c3n(CCNC(=O)OC/C=C/c3ccccc3Cl)c2c1,1.24 µM
13,COc1ccc2c3ccnc(C)c3n(CCNC(=O)/C=C/c3ccccc3Cl)c2c1,0.32 µM
14,CCCOc1ccc(/C=C/COC(=O)NCCn2c3cc(OC)ccc3c3ccnc(C)c32)cc1,0.39 µM
15,COc1ccc2c3ccnc(C)c3n(CCNC(=O)OC/C=C/c3ccccc3)c2c1,0.55 µM
16,COc1ccc2c3ccnc(C)c3n(CCNC(=O)/C=C/c3cccc(Cl)c3)c2c1,0.33 µM
17,COc1ccc2c3ccnc(C)c3n(CCNC(=O)NC/C=C/c3cccc(C(F)(F)F)c3)c2c1,0.22 µM
18,COc1ccc2c3ccnc(C)c3n(CCNC(=O)OC/C=C/c3cccc(OC(F)(F)F)c3)c2c1,0.68 µM
19,COc1ccc2c3ccnc(C)c3n(CCNC(=O)OC/C=C/c3ccc(Br)cc3)c2c1,0.42 µM

# Tested on: HepG2
# Experiment: Cytotoxicity against human HepG2 cells assessed as reduction in cell viability incubated for 72 hrs by MTT assay
# Assay type: functional, cell-based
# Details: HepG2, 72 h
row,SMILES,IC50
1,COc1ccc2c3ccnc(C)c3n(CCNC(=O)/C=C/c3cccc(OC(F)(F)F)c3)c2c1,6.64 µM
2,COc1ccc2c3ccnc(C)c3n(CCNC(=O)OC/C=C/c3ccc(C)cc3)c2c1,9.92 µM
3,COc1ccc2c3ccnc(C)c3n(CCNC(=O)/C=C/c3ccc([N+](=O)[O-])cc3)c2c1,17.5 µM
4,COc1ccc2c3ccnc(C)c3n(CCNC(=O)OC/C=C/c3cccc(Cl)c3)c2c1,8.52 µM
5,CCCOc1ccc(/C=C/CNC(=O)NCCn2c3cc(OC)ccc3c3ccnc(C)c32)cc1,4.33 µM
6,COc1ccc2c3ccnc(C)c3n(CCNC(=O)/C=C/c3ccc(Br)cc3)c2c1,8.58 µM
7,COc1ccc2c3ccnc(C)c3n(CCNC(=O)/C=C/c3ccc(C)cc3)c2c1,8.16 µM
8,COc1ccc2c3ccnc(C)c3n(CCNC(=O)OC/C=C/c3cc(C(F)(F)F)cc(C(F)(F)F)c3)c2c1,7.19 µM
9,COc1ccc2c3ccnc(C)c3n(CCNC(=O)OC/C=C/c3ccc(C(F)(F)F)cc3)c2c1,6.71 µM
10,COc1ccc2c3ccnc(C)c3n(CCNC(=O)/C=C/c3ccccc3Cl)c2c1,7.19 µM
11,CCCOc1ccc(/C=C/COC(=O)NCCn2c3cc(OC)ccc3c3ccnc(C)c32)cc1,9.96 µM
12,COc1ccc2c3ccnc(C)c3n(CCNC(=O)OC/C=C/c3ccccc3)c2c1,7.21 µM
13,COc1ccc2c(c1)[nH]c1c(C)nccc12 [HARMINE],> 250 µM
14,COc1ccc2c3ccnc(C)c3n(CCNC(=O)/C=C/c3cccc(Cl)c3)c2c1,8.97 µM
15,COc1ccc2c3ccnc(C)c3n(CCNC(=O)NC/C=C/c3cccc(C(F)(F)F)c3)c2c1,9.84 µM
16,COc1ccc2c3ccnc(C)c3n(CCNC(=O)OC/C=C/c3cccc(OC(F)(F)F)c3)c2c1,8.71 µM
17,COc1ccc2c3ccnc(C)c3n(CCNC(=O)OC/C=C/c3ccc(Br)cc3)c2c1,9.05 µM

# Tested on: Plasmodium falciparum
# Experiment: Antimalarial activity against erythrocytic stage of chloroquine-resistant Plasmodium falciparum Dd2 measured after 3 days by HRP2-ELISA analysis
# Assay type: functional, organism-based
# Details: Dd2, 72 h
row,SMILES,IC50
1,COc1ccc2c3ccnc(C)c3n(CCNC(=O)/C=C/c3cccc(OC(F)(F)F)c3)c2c1,2.11 µM
2,COc1ccc2c3ccnc(C)c3n(CCNC(=O)OC/C=C/c3ccc(C)cc3)c2c1,2.28 µM
3,COc1ccc2c3ccnc(C)c3n(CCNC(=O)/C=C/c3ccc([N+](=O)[O-])cc3)c2c1,2.05 µM
4,COc1ccc2c3ccnc(C)c3n(CCNC(=O)OC/C=C/c3ccc([N+](=O)[O-])cc3)c2c1,0.33 µM
5,COc1ccc2c3ccnc(C)c3n(CCNC(=O)OC/C=C/c3cccc(Cl)c3)c2c1,1.19 µM
6,CCCOc1ccc(/C=C/CNC(=O)NCCn2c3cc(OC)ccc3c3ccnc(C)c32)cc1,1.12 µM
7,COc1ccc2c3ccnc(C)c3n(CCNC(=O)/C=C/c3ccc(C)cc3)c2c1,0.64 µM
8,COc1ccc2c3ccnc(C)c3n(CCNC(=O)OC/C=C/c3cc(C(F)(F)F)cc(C(F)(F)F)c3)c2c1,2.63 µM
9,COc1ccc2c3ccnc(C)c3n(CCNC(=O)OC/C=C/c3cccc(C(F)(F)F)c3)c2c1,1.92 µM
10,COc1ccc2c3ccnc(C)c3n(CCNC(=O)OC/C=C/c3ccc(C(F)(F)F)cc3)c2c1,0.7 µM
11,COc1ccc2c3ccnc(C)c3n(CCNC(=O)OC/C=C/c3ccccc3Cl)c2c1,1.33 µM
12,COc1ccc2c3ccnc(C)c3n(CCNC(=O)/C=C/c3ccccc3Cl)c2c1,0.5 µM
13,CCCOc1ccc(/C=C/COC(=O)NCCn2c3cc(OC)ccc3c3ccnc(C)c32)cc1,0.83 µM
14,COc1ccc2c3ccnc(C)c3n(CCNC(=O)OC/C=C/c3ccccc3)c2c1,1.37 µM
15,COc1ccc2c(c1)[nH]c1c(C)nccc12 [HARMINE],> 27.7 µM
16,COc1ccc2c3ccnc(C)c3n(CCNC(=O)/C=C/c3cccc(Cl)c3)c2c1,0.68 µM
17,COc1ccc2c3ccnc(C)c3n(CCNC(=O)NC/C=C/c3cccc(C(F)(F)F)c3)c2c1,1.07 µM
18,COc1ccc2c3ccnc(C)c3n(CCNC(=O)OC/C=C/c3cccc(OC(F)(F)F)c3)c2c1,1.78 µM
19,COc1ccc2c3ccnc(C)c3n(CCNC(=O)OC/C=C/c3ccc(Br)cc3)c2c1,1.09 µM

# Source: ChEMBL document CHEMBL5365475, “Design, synthesis and antiplasmodial evaluation of new amide-, carbamate-, and ureido-type harmicines” (Bioorg Med Chem, 2023)
